Assay results published in paper PMC12388801, “Identification of Bioactive Peptides from Caenorhabditis elegans Secretions That Promote Indole-3-Acetic Acid Production in Arthrobacter pascens ZZ21” (Microorganisms, 2025).
Like-named read-outs stand apart in the source and are kept apart here. Peptide text beside a SMILES is read from it.

Test: Solubility assessment of synthetic candidate peptides
Method: Candidate peptide sequences identified by LC-MS/MS were synthesized using GenScript Biotech (Nanjing, China). Peptide solubility was tested in various solvents to determine optimal conditions for functional assays. Initial screening was performed in 30 mL of inorganic salt medium with 200 mg/L L-tryptophan. A. pascens ZZ21 was inoculated at 1% (v/v), and peptides were tested at 1 ppm and 0.1 ppm. The peptides were dissolved according to their solubility profiles, with corresponding solvent controls: CK-A (1 ppm blank) and CK-B (0.1 ppm blank). Cultures were incubated at 30 °C, 250 rpm for 48 h, after which IAA levels in the supernatants were measured.
This analysis was conducted by Biotech Pack Scientific Co., Ltd. (Beijing, China).

[1] = synthetic peptide, N/A = lower than 0.1 mg/mL
[2] = synthetic peptide, ultrapure water, N/A = lower than 0.1 mg/mL

Row | Solubilty in ultrapure water | Compound | Solubilty in 0.1 M PBS [1] | Solubilty in ultrapure water [2] | Solubilty in DMSO [1]
1 | – | CC(C)C[C@H](NC(=O)[C@H](CO)NC(=O)[C@H](CC(C)C)NC(=O)[C@H](CC(=O)O)NC(=O)[C@H](CC(C)C)NC(=O)[C@@H](N)Cc1ccccc1)C(=O)N[C@@H](CCCCN)C(=O)O [Peptide P18] (H-FLDLSLK-OH) | N/A (N/A indicates solubility lower than 0.1 mg/mL) | N/A (N/A indicates solubility lower than 0.1 mg/mL) | –
2 | – | CC(C)[C@H](NC(=O)[C@H](C)NC(=O)[C@@H](NC(=O)[C@H](C)NC(=O)[C@H](CO)NC(=O)CN)C(C)C)C(=O)NCC(=O)N[C@@H](CCCNC(=N)N)C(=O)O [Peptide P5] (H-GSAVAVGR-OH) | N/A (N/A indicates solubility lower than 0.1 mg/mL) | – | –
3 | – | CC(C)C[C@H](NC(=O)[C@H](CCC(N)=O)NC(=O)[C@@H]1CCCN1)C(=O)N[C@@H](CCC(=O)O)C(=O)N[C@H](C(=O)N[C@@H](CC(C)C)C(=O)N[C@H](C(=O)N1CCC[C@H]1C(=O)N[C@@H](CC(N)=O)C(=O)O)C(C)C)C(C)C [Peptide P20] (H-PQLEVLVPN-OH) | N/A (N/A indicates solubility lower than 0.1 mg/mL) | N/A (N/A indicates solubility lower than 0.1 mg/mL) | –
4 | – | CC(C)C[C@H](NC(=O)[C@H](CCC(=O)O)NC(=O)[C@H](Cc1ccc(O)cc1)NC(=O)[C@H](Cc1ccc(O)cc1)NC(=O)[C@@H](N)CC(C)C)C(=O)N[C@@H](C)C(=O)N[C@@H](CCCNC(=N)N)C(=O)O [Peptide P14] (H-LYYELAR-OH) | N/A (N/A indicates solubility lower than 0.1 mg/mL) | N/A (N/A indicates solubility lower than 0.1 mg/mL) | –
5 | – | CC(C)C[C@H](NC(=O)[C@H](C)NC(=O)[C@H](CC(N)=O)NC(=O)CN)C(=O)N[C@@H](C)C(=O)N[C@H](C(=O)N[C@@H](CCCNC(=N)N)C(=O)O)[C@@H](C)O [Peptide P1] (H-GNALATR-OH) | N/A (N/A indicates solubility lower than 0.1 mg/mL) | – | –
6 | – | CC(C)C[C@H](NC(=O)[C@H](C)NC(=O)[C@@H](NC(=O)CNC(=O)[C@@H](NC(=O)[C@H](CO)NC(=O)[C@@H](NC(=O)[C@@H]1CCCN1C(=O)[C@@H](N)CCC(=O)O)[C@@H](C)O)C(C)C)C(C)C)C(=O)N[C@@H](C)C(=O)N[C@@H](CCC(=O)O)C(=O)O [Peptide P30] (H-EPTSVGVALAE-OH) | – | N/A (N/A indicates solubility lower than 0.1 mg/mL) | N/A (N/A indicates solubility lower than 0.1 mg/mL)
7 | – | CC(C)C[C@H](NC(=O)[C@H](CCC(N)=O)NC(=O)[C@H](CC(C)C)NC(=O)[C@@H](NC(=O)[C@@H](N)CC(C)C)C(C)C)C(=O)N[C@@H](CC(=O)O)C(=O)N[C@@H](CC(N)=O)C(=O)N[C@@H](C)C(=O)N[C@@H](CCCCN)C(=O)O [Peptide P13] (H-LVLQLDNAK-OH) | N/A (N/A indicates solubility lower than 0.1 mg/mL) | N/A (N/A indicates solubility lower than 0.1 mg/mL) | –
8 | – | CC(C)C[C@H](NC(=O)[C@H](Cc1ccccc1)NC(=O)[C@H](CC(=O)O)NC(=O)[C@@H](NC(=O)[C@H](CC(C)C)NC(=O)[C@@H](N)[C@@H](C)O)C(C)C)C(=O)N[C@@H](CCCNC(=N)N)C(=O)O [Peptide P25] (H-TLVDFLR-OH) | N/A (N/A indicates solubility lower than 0.1 mg/mL) | N/A (N/A indicates solubility lower than 0.1 mg/mL) | –
9 | – | CC(C)[C@H](N)C(=O)N[C@H](C(=O)N[C@@H](CC(=O)O)C(=O)N[C@H](C(=O)N[C@@H](CO)C(=O)N[C@@H](CCC(=O)O)C(=O)N[C@H](C(=O)N[C@@H](Cc1ccccc1)C(=O)N[C@@H](Cc1ccccc1)C(=O)N[C@@H](CCCCN)C(=O)O)C(C)C)C(C)C)[C@@H](C)O [Peptide P28] (H-VTDVSEVFFK-OH) | N/A (N/A indicates solubility lower than 0.1 mg/mL) | N/A (N/A indicates solubility lower than 0.1 mg/mL) | –
10 | – | CC(C)C[C@H](NC(=O)CNC(=O)[C@H](CO)NC(=O)[C@@H](N)CC(=O)O)C(=O)N[C@H](C(=O)N[C@@H](CC(C)C)C(=O)N[C@@H](CCCCN)C(=O)O)C(C)C [Peptide P11] (H-DSGLVLK-OH) | N/A (N/A indicates solubility lower than 0.1 mg/mL) | – | N/A (N/A indicates solubility lower than 0.1 mg/mL)
11 | – | CC(C)C[C@H](NC(=O)[C@H](CC(C)C)NC(=O)[C@H](CC(N)=O)NC(=O)[C@@H](NC(=O)[C@H](CO)NC(=O)[C@@H](NC(=O)[C@@H]1CCCN1C(=O)[C@@H](N)CCC(=O)O)[C@@H](C)O)C(C)C)C(=O)N[C@@H](C)C(=O)N[C@@H](CCC(=O)O)C(=O)O [Peptide P29] (H-EPTSVNLLAE-OH) | N/A (N/A indicates solubility lower than 0.1 mg/mL) | N/A (N/A indicates solubility lower than 0.1 mg/mL) | –
12 | – | CC(C)C[C@H](NC(=O)[C@H](CCC(N)=O)NC(=O)[C@@H]1CCCN1)C(=O)N[C@@H](CCC(=O)O)C(=O)N[C@@H](CC(C)C)C(=O)N[C@H](C(=O)N[C@H](C(=O)N1CCC[C@H]1C(=O)N[C@@H](CC(N)=O)C(=O)O)C(C)C)C(C)C [Peptide P22] (H-PQLELVVPN-OH) | N/A (N/A indicates solubility lower than 0.1 mg/mL) | N/A (N/A indicates solubility lower than 0.1 mg/mL) | –
13 | ≤ 5 mg/mL | CC(C)[C@H](NC(=O)[C@H](CCC(=O)O)NC(=O)[C@H](C)NC(=O)[C@H](Cc1ccccc1)NC(=O)[C@H](CCC(=O)O)NC(=O)[C@H](C)N)C(=O)N[C@@H](CO)C(=O)N[C@@H](CCCCN)C(=O)O [Peptide P6] (H-AEFAEVSK-OH) | – | – | –
14 | – | CC(C)C[C@H](NC(=O)CNC(=O)[C@H](Cc1ccccc1)NC(=O)[C@H](C)NC(=O)[C@H](CC(C)C)NC(=O)[C@H](C)NC(=O)[C@H](CC(C)C)NC(=O)[C@@H](N)[C@@H](C)O)C(=O)N[C@H](C(=O)N[C@@H](C)C(=O)O)[C@@H](C)O [Peptide P12] (H-TLALAFGLTA-OH) | – | N/A (N/A indicates solubility lower than 0.1 mg/mL) | –
15 | – | CC(C)C[C@H](NC(=O)[C@H](CC(=O)O)NC(=O)[C@@H](NC(=O)[C@@H](NC(=O)[C@@H](N)CC(C)C)[C@@H](C)O)C(C)C)C(=O)N[C@@H](Cc1ccccc1)C(=O)N[C@@H](CCCNC(=N)N)C(=O)O [Peptide P27] (H-LTVDLFR-OH) | N/A (N/A indicates solubility lower than 0.1 mg/mL) | N/A (N/A indicates solubility lower than 0.1 mg/mL) | –
16 | – | CC(C)C[C@H](NC(=O)CNC(=O)[C@H](CC(C)C)NC(=O)[C@H](C)NC(=O)[C@H](C)NC(=O)[C@H](CO)NC(=O)[C@H](C)NC(=O)[C@H](C)NC(=O)[C@H](CCC(N)=O)NC(=O)[C@H](CC(C)C)NC(=O)[C@@H](N)C(C)C)C(=O)O [Peptide P24] (H-VLQAASAALGL-OH) | N/A (N/A indicates solubility lower than 0.1 mg/mL) | N/A (N/A indicates solubility lower than 0.1 mg/mL) | –
